Structures are written as SMILES.

Assay [1] relates to MDA-MB-231. Kind of assay: cells. The conditions noted are these: Homo sapiens, MDA-MB-231, 72 h.
Description: Cytotoxicity against human MDA-MB-231 cells assessed as cell growth inhibition incubated for 72 hrs by MTT assay
Assay [2] deals with MCF7. Kind of assay: cells. The conditions noted are these: Homo sapiens, MCF7, 72 h.
Description: Cytotoxicity against human MCF7 cells assessed as cell growth inhibition incubated for 72 hrs by MTT assay
The target in assay [3] is T1, Thymidylate synthase (Homo sapiens, UniProt P04818). Kind of assay: Inhibition of thymidylate synthase (unknown origin).
The target of assay [4] is T1, Thymidylate synthase. Briefly: Inhibition of human thymidylate synthase expressed in Escherichia coli using 6R,S-tetrahydrofolate and dUMP as substrate by spectrophotometric analysis.
Assay [5] has as its system MCF7. Briefly: Induction of apoptosis in human MCF7 cells assessed as total apoptotic cells at 10 uM incubated for 48 hrs by annexin-V-FITC and PI staining based flow cytometry analysis (reference value: 8.3 %). It is filed as functional. (In general: A flow cytometer gives signals particle by particle.)
The test system of assay [6] is MCF7. Kind of assay: Induction of cell cycle arrest in human MCF7 cells assessed as increase in accumulation at G2/M phase at 10 uM incubated for 48 hrs by PI staining based flow cytometry analysis relative to control. It is filed as functional.
In assay [7] the test system is MCF7. Briefly: Potency index, ratio of 5-fluorouracil IC50 to test compound IC50 for cytotoxicity against human MCF7 cells assessed as cell growth inhibition incubated for 72 hrs by MTT assay. It is filed as functional. A general note: Formazan colour is commonly taken as a measure of viable cells.
In assay [8] the test system is MDA-MB-231. Briefly: Potency index, ratio of tamoxifen IC50 to test compound IC50 for cytotoxicity against human MDA-MB-231 cells assessed as cell growth inhibition incubated for 72 hrs by MTT assay. Type of assay: functional.
Assay [9] deals with HEK293. Kind of assay: Cytotoxicity against human HEK293 cells assessed as cell growth inhibition incubated for 72 hrs by MTT assay. Type of assay: cell-based. The conditions noted are these: HEK293, 72 h.
In assay [10] the test system is MCF7. Kind of assay: Induction of cell cycle arrest in human MCF7 cells assessed as accumulation at sub-G1 phase at 10 uM incubated for 48 hrs by PI staining based flow cytometry analysis (reference value: 3.7 %). It is filed as functional.
For assay [11], the system named is MDA-MB-231. Kind of assay: Potency index, ratio of 5-fluorouracil IC50 to test compound IC50 for cytotoxicity against human MDA-MB-231 cells assessed as cell growth inhibition incubated for 72 hrs by MTT assay. Type of assay: functional.

T1 sequence (P04818 whole entry): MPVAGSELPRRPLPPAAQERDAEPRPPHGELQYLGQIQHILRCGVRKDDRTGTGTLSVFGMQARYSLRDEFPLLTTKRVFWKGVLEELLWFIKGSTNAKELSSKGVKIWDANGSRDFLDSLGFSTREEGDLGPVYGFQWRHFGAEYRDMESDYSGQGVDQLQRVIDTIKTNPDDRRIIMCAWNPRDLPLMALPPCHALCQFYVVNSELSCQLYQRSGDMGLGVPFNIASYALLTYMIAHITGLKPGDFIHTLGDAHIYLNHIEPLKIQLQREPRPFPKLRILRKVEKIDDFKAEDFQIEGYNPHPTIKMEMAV

With `Cc1ccc(C(C)C)c(OCc2cn(-c3ccc(O)cc3)nn2)c1`, the IC50 (in general, the concentration that inhibits the measured activity by half) came out at 30.4 µM in assay [1] and 45.4 µM in [2].

With `CC/C(=C(\c1ccccc1)c1ccc(OCCN(C)C)cc1)c1ccccc1` [TAMOXIFEN], the results for the 50% inhibitory concentration (IC50) in assay [1] and in assay [2] were 15 µM and 5.62 µM, respectively.

Regarding `Cc1cccc(-n2cc(COc3cc(C)ccc3C(C)C)nn2)c1`, the concentration for half-maximal inhibition (IC50) in [1] was 31.2 µM; in assay [2], 28.1 µM.

`CCOC(=O)C1CCC(c2ccccc2)N1C(=O)c1cn(CCCNC(=O)C(F)(F)F)nn1` (stereo not given) registered an IC50 in assay [3] of 0.057 µM.

In the case of `Cc1ccc(C(C)C)c(OCc2cn(-c3ccc(F)cc3)nn2)c1`, the figures for the concentration for half-maximal inhibition (IC50) in assay [1] and in assay [2] were 32.6 µM and 22.1 µM, respectively.

Regarding `Cc1ccc(C(C)C)c(OCc2cn(-c3ccccc3)nn2)c1`, the concentration for half-maximal inhibition (IC50) in [1] stood at 45.1 µM; in assay [2] it was 29.9 µM.

For the compound `Cc1ccc(C(C)C)c(OCc2cn(-c3cccc4c(-n5cc(COc6cc(C)ccc6C(C)C)nn5)cccc34)nn2)c1`, the half-inhibitory concentration (IC50) came out at 22.1 µM in assay [1] and 18.1 µM in assay [2].

Regarding `Cc1ccc(C(C)C)c(OCc2cn(-c3ccccc3C)nn2)c1`, the IC50 in assay [1] is 10.5 µM; in assay [4], 2.21 µM; in [2] it was 6.17 µM; in [9], more than 50 µM. In addition, the Activity in assay [5] came out at 29.4%; in assay [6] it was 37.3%; in [10], 21.4%. The “Ratio IC50” value turned out to be 3.2 in assay [7] and 1.42 in assay [8].

As for `COc1ccc(-n2cc(COc3cc(C)ccc3C(C)C)nn2)cc1`, the IC50 in assay [1] is 45.3 µM; in [2], 25.4 µM.

Take `Cc1ccc(C(C)C)c(OCc2cn(-c3cccc(C(=O)O)c3)nn2)c1`: the concentration for half-maximal inhibition (IC50) is 11.4 µM in assay [1], 4.27 µM in assay [4] and 10.3 µM in assay [2]. Moreover, the “Ratio IC50” value is given as 2.2 in assay [11], 1.95 in [7] and 1.3 in assay [8].

For `O=c1[nH]cc(F)c(=O)[nH]1` [FLUOROURACIL], the IC50 in [1] was 25.3 µM; in assay [2] it was 20.1 µM.

Take `Cc1ccc(C(C)C)c(OCc2cn(-c3ccccc3Cl)nn2)c1`: the half-inhibitory concentration (IC50) in [1] stood at 26.6 µM; in assay [2], 15.6 µM. In addition, the “Ratio IC50” value in assay [7] is recorded as 1.2.

`Nc1nc2[nH]cc(CCc3ccc(C(=O)N[C@@H](CCC(=O)O)C(=O)O)cc3)c2c(=O)[nH]1` [PEMETREXED] showed an IC50 in [4] of 5.39 µM.

`Cc1ccc(C(C)C)c(OCc2cn(-c3ccc([N+](=O)[O-])cc3)nn2)c1`: the IC50 in assay [1] is 41 µM; in assay [2], 32.2 µM.

For `Cc1ccc(C(C)C)c(OCc2cn(-c3cccc(Cl)c3)nn2)c1`, the IC50 in assay [1] came to 45.2 µM; in [2], 32.1 µM.

The values are drawn from ChEMBL document CHEMBL4819101, “Design, synthesis and molecular docking studies of thymol based 1,2,3-triazole hybrids as thymidylate synthase inhibitors and apoptosis inducers against breast cancer cells” (Bioorg Med Chem, 2021).
